# Read-outs that look alike come from different tables or passages of the source.
# What was measured:
# patients with HD [1] = conditions: for Δ to placebo: Q-Motor Tap-Speed-Inter-Onset-interval-MN-Hand, change from baseline: week 52
# Text: Motor deficits can be objectively assessed using different Q-Motor assessments. All Q-Motor assessments are based on the application of precalibrated and temperature controlled force transducers and 3-dimensional position sensors with very high sensitivity and test-retest reliability across sessions and sites in a multicenter clinical study. Q-Motor measures thus aim to reduce the limited sensitivity of categorical clinical rating scales, the intra- and inter-rater variability, and placebo effects observed in scales such as UHDRS-TMS. In addition, Q-Motor assessments allow for the objective monitoring of unintended motor side-effects in clinical studies. Thus, Q-Motor is an objective, reliable, and sensitive measure of motor function that is free of rater bias and limits placebo effect influence.
# The patient placed their hand on a hand rest with their index finger positioned above a force-transducer. Recordings start after practice runs. The patient is instructed to finger tap as fast as possible between 2 auditory cues. The beginning of a tap is defined as a rise of the force by 0.05 N above maximal baseline level. The tap ends when it drops to 0.05 N before the maximal baseline level is reached again. The duration and variability of tap durations (TD), inter onset intervals (IOI), inter peak intervals (IPI), and inter tap intervals (ITI) are the exploratory outcome measures for speeded tapping. In addition, variability of peak tapping forces (TF) is calculated as coefficient of variation, and the tapping frequency (Freq), i.e., the number of taps between the onsets of the first and the last tap divided by the time in between, is determined. Five trials of 10 seconds duration are performed with each hand.
# patients with HD [2] = conditions: for PBA Irritability, Severity×Frequency, change from baseline, Wk 52 Δ to placebo: BL TFC≥7
# Experimental: The PBA-s is a brief semi-structured interview covering the most common behavioral and psychiatric manifestations of HD. […] Severity and frequency scores are multiplied to produce an overall ‘PBA score’ for each symptom.
# The PBA-s is a brief semi-structured interview covering the most common behavioral and psychiatric manifestations of HD.
# The total PBA score is calculated by the sum of all PBA-s scores across symptoms/domains.
compound,measurement,setting,value
"CCCN1CCC(c2cccc(S(C)(=O)=O)c2)CC1 [pridopidine, 4-[3-(methylsulfonyl)phenyl]-1-propyl-piperidine]","Δ to placebo: Q-Motor Tap-Speed-Inter-Onset-interval-MN-Hand, change from baseline","patients with HD [1]; 45 mg bid, FAS",-0.0402 s
same,"Δ to placebo: Q-Motor Tap-Speed-Inter-Onset-interval-MN-Hand, change from baseline","patients with HD [1]; 45 mg bid, HD1 and HD2 patients",-0.0351 s
same,"Δ to placebo: Q-Motor Tap-Speed-Inter-Onset-interval-MN-Hand, change from baseline","patients with HD [1]; 67.5 mg bid, FAS",0.0152 s
same,"Δ to placebo: Q-Motor Tap-Speed-Inter-Onset-interval-MN-Hand, change from baseline","patients with HD [1]; 67.5 mg bid, HD1 and HD2 patients",-0.0464 s
same,"Δ to placebo: Q-Motor Tap-Speed-Inter-Onset-interval-MN-Hand, change from baseline","patients with HD [1]; 90 mg bid, FAS",-0.0064 s
same,"Δ to placebo: Q-Motor Tap-Speed-Inter-Onset-interval-MN-Hand, change from baseline","patients with HD [1]; 90 mg bid, HD1 and HD2 patients",-0.0291 s
same,Q-Motor Tap-Speed-Frequency,"patients with HD [1]; 90 mg bid, weeks 4, 12, 26 (FIG. 38)",consistent improvement from baseline
same,Q-Motor Tap Speed Inter Onset Interval (IOI),"patients with HD [1]; 90 mg bid, weeks 4, 12, 26 (FIG. 39a)",consistent and significant improvement from baseline
same,"Δ to placebo: Q-Motor Tap-Speed-Inter-Onset-interval-MN-Hand, change from baseline","patients with HD [1]; 112.5 mg bid, FAS",-0.017 s
same,"Δ to placebo: Q-Motor Tap-Speed-Inter-Onset-interval-MN-Hand, change from baseline","patients with HD [1]; 112.5 mg bid, HD1 and HD2 patients",-0.022 s
same,"Change from baseline in PBA Depressed Mood, Severity×Frequency, Δ to placebo","patients with HD [2]; 45 mg bid, Week 26, ALL",−0.29
same,"PBA Disoriented Behavior, Severity×Frequency, change from baseline, Δ to placebo","patients with HD [2]; 45 mg bid, Week 26, ALL, p value 0.2864",−0.2
same,"PBA Obsessive-Compulsive, Severity×Frequency, change from baseline, Δ to placebo","patients with HD [2]; 45 mg bid, Week 26, ALL, p value 0.8081",0.1
same,"Change from baseline in PBA Depressed Mood, Severity×Frequency, Δ to placebo","patients with HD [2]; 45 mg bid, Week 26, Stage 1 BL TFC 11-13",−0.63
same,"PBA Obsessive-Compulsive, Severity×Frequency, change from baseline, Δ to placebo","patients with HD [2]; 45 mg bid, Week 26, Stage 1 BL TFC 11-13, p value 0.0035",−2.11
same,"PBA Disoriented Behavior, Severity×Frequency, change from baseline, Δ to placebo","patients with HD [2]; 45 mg bid, Week 26, Stage 1 BL TFC 11-13, p value 0.0381",−0.19
same,"Change from baseline PBA Irritability, Severity×Frequency, Δ to placebo","patients with HD [2]; 45 mg bid, Week 52, ALL",−1.03
same,"PBA Obsessive-Compulsive, Severity×Frequency, change from baseline, Δ to placebo","patients with HD [2]; 45 mg bid, Week 52, ALL, p value 0.5733",−0.24
same,"PBA Irritability, Severity×Frequency, change from baseline, Δ to placebo","patients with HD [2]; 45 mg bid, Week 52, BL TFC<7, p value 0.0165",−2.42
same,"PBA Irritability, Severity×Frequency, change from baseline, Wk 52 Δ to placebo","patients with HD [2]; 45 mg bid, Week 52, p value 0.1789",−0.59
same,"PBA Obsessive-Compulsive, Severity×Frequency, change from baseline, Δ to placebo","patients with HD [2]; 45 mg bid, Week 52, Stage 1 BL TFC 11-13, p value 0.007",−2.73
same,"PBA Irritability, Severity×Frequency, change from baseline, Δ to placebo","patients with HD [2]; 45 mg bid, Week 52, Stage 3-5 BL TFC 0-6, p value 0.0165",−2.42
same,"Change from baseline in PBA Depressed Mood, Severity×Frequency, Δ to placebo","patients with HD [2]; 67.5 mg bid, Week 26, ALL",−0.65
same,"PBA Disoriented Behavior, Severity×Frequency, change from baseline, Δ to placebo","patients with HD [2]; 67.5 mg bid, Week 26, ALL, p value 0.1357",−0.28
same,"PBA Obsessive-Compulsive, Severity×Frequency, change from baseline, Δ to placebo","patients with HD [2]; 67.5 mg bid, Week 26, ALL, p value 0.2512",−0.45
same,"Change from baseline in PBA Depressed Mood, Severity×Frequency, Δ to placebo","patients with HD [2]; 67.5 mg bid, Week 26, Stage 1 BL TFC 11-13",−2.01
same,"PBA Obsessive-Compulsive, Severity×Frequency, change from baseline, Δ to placebo","patients with HD [2]; 67.5 mg bid, Week 26, Stage 1 BL TFC 11-13, p value 0.0035",−2.03
same,"PBA Disoriented Behavior, Severity×Frequency, change from baseline, Δ to placebo","patients with HD [2]; 67.5 mg bid, Week 26, Stage 1 BL TFC 11-13, p value 0.0615",−0.16
same,"Change from baseline PBA Irritability, Severity×Frequency, Δ to placebo","patients with HD [2]; 67.5 mg bid, Week 52, ALL",−0.63
same,"PBA Obsessive-Compulsive, Severity×Frequency, change from baseline, Δ to placebo","patients with HD [2]; 67.5 mg bid, Week 52, ALL, p value 0.5068",−0.28
same,"PBA Irritability, Severity×Frequency, change from baseline, Δ to placebo","patients with HD [2]; 67.5 mg bid, Week 52, BL TFC<7, p value 0.0429",−1.78
same,"PBA Irritability, Severity×Frequency, change from baseline, Wk 52 Δ to placebo","patients with HD [2]; 67.5 mg bid, Week 52, p value 0.466",−0.33
same,"PBA Obsessive-Compulsive, Severity×Frequency, change from baseline, Δ to placebo","patients with HD [2]; 67.5 mg bid, Week 52, Stage 1 BL TFC 11-13, p value 0.0011",−3.24
same,"PBA Irritability, Severity×Frequency, change from baseline, Δ to placebo","patients with HD [2]; 67.5 mg bid, Week 52, Stage 3-5 BL TFC 0-6, p value 0.0429",−1.78
same,"Change from baseline in PBA Depressed Mood, Severity×Frequency, Δ to placebo","patients with HD [2]; 90 mg bid, Week 26, ALL",−0.34
same,"PBA Disoriented Behavior, Severity×Frequency, change from baseline, Δ to placebo","patients with HD [2]; 90 mg bid, Week 26, ALL, p value 0.607",−0.09
same,"PBA Obsessive-Compulsive, Severity×Frequency, change from baseline, Δ to placebo","patients with HD [2]; 90 mg bid, Week 26, ALL, p value 0.7541",−0.12
same,"Change from baseline in PBA Depressed Mood, Severity×Frequency, Δ to placebo","patients with HD [2]; 90 mg bid, Week 26, Stage 1 BL TFC 11-13",−0.84
same,"PBA Obsessive-Compulsive, Severity×Frequency, change from baseline, Δ to placebo","patients with HD [2]; 90 mg bid, Week 26, Stage 1 BL TFC 11-13, p value 0.0251",−1.71
same,"PBA Disoriented Behavior, Severity×Frequency, change from baseline, Δ to placebo","patients with HD [2]; 90 mg bid, Week 26, Stage 1 BL TFC 11-13, p value 0.093",−0.16
same,"Change from baseline PBA Irritability, Severity×Frequency, Δ to placebo","patients with HD [2]; 90 mg bid, Week 52, ALL",−1.01
same,"PBA Obsessive-Compulsive, Severity×Frequency, change from baseline, Δ to placebo","patients with HD [2]; 90 mg bid, Week 52, ALL, p value 0.7508",−0.13
same,"PBA Irritability, Severity×Frequency, change from baseline, Δ to placebo","patients with HD [2]; 90 mg bid, Week 52, BL TFC<7, p value 0.0422",−1.79
same,"PBA Irritability, Severity×Frequency, change from baseline, Wk 52 Δ to placebo","patients with HD [2]; 90 mg bid, Week 52, p value 0.0311",−0.95
same,"PBA Obsessive-Compulsive, Severity×Frequency, change from baseline, Δ to placebo","patients with HD [2]; 90 mg bid, Week 52, Stage 1 BL TFC 11-13, p value 0.021",−2.47
same,"PBA Irritability, Severity×Frequency, change from baseline, Δ to placebo","patients with HD [2]; 90 mg bid, Week 52, Stage 3-5 BL TFC 0-6, p value 0.0422",−1.79
same,"Change from baseline in PBA Depressed Mood, Severity×Frequency, Δ to placebo","patients with HD [2]; 112.5 mg bid, Week 26, ALL",−0.52
same,"PBA Obsessive-Compulsive, Severity×Frequency, change from baseline, Δ to placebo","patients with HD [2]; 112.5 mg bid, Week 26, ALL, p value 0.1061",−0.63
same,"PBA Disoriented Behavior, Severity×Frequency, change from baseline, Δ to placebo","patients with HD [2]; 112.5 mg bid, Week 26, ALL, p value 0.6771",−0.08
same,"Change from baseline in PBA Depressed Mood, Severity×Frequency, Δ to placebo","patients with HD [2]; 112.5 mg bid, Week 26, Stage 1 BL TFC 11-13",−1.43
same,"PBA Obsessive-Compulsive, Severity×Frequency, change from baseline, Δ to placebo","patients with HD [2]; 112.5 mg bid, Week 26, Stage 1 BL TFC 11-13, p value 0.0114",−1.73
same,"PBA Disoriented Behavior, Severity×Frequency, change from baseline, Δ to placebo","patients with HD [2]; 112.5 mg bid, Week 26, Stage 1 BL TFC 11-13, p value 0.0357",−0.18
same,"Change from baseline PBA Irritability, Severity×Frequency, Δ to placebo","patients with HD [2]; 112.5 mg bid, Week 52, ALL",−0.84
same,"PBA Obsessive-Compulsive, Severity×Frequency, change from baseline, Δ to placebo","patients with HD [2]; 112.5 mg bid, Week 52, ALL, p value 0.7789",−0.12
same,"PBA Irritability, Severity×Frequency, change from baseline, Δ to placebo","patients with HD [2]; 112.5 mg bid, Week 52, BL TFC<7, p value 0.0542",−1.71
same,"PBA Irritability, Severity×Frequency, change from baseline, Wk 52 Δ to placebo","patients with HD [2]; 112.5 mg bid, Week 52, p value 0.1927",−0.6
same,"PBA Obsessive-Compulsive, Severity×Frequency, change from baseline, Δ to placebo","patients with HD [2]; 112.5 mg bid, Week 52, Stage 1 BL TFC 11-13, p value 0.005",−2.73
same,"PBA Irritability, Severity×Frequency, change from baseline, Δ to placebo","patients with HD [2]; 112.5 mg bid, Week 52, Stage 3-5 BL TFC 0-6, p value 0.0542",−1.71

# Source: patent US11207310B2 (PRILENIA NEUROTHERAPEUTICS LTD., priority 2016, dated 2021)
